Reference: patent publication US20240343706A1, “PIPERIDINE-2,6-DIONE DERIVATIVES WHICH BIND TO CEREBLON, AND METHODS OF USE THEREOF” (Captor Therapeutics S.A., priority 2019, published 2024)

Legend:
[1] = target: CRBN-DDB1 protein complex (Homo sapiens, UniProt Q96SW2); assay: Fluorescence polarization (FP) assay, displacement of Cy5-labelled thalidomide; settings: 25 nM CRBN-DDB1, 5 nM Cy5-labelled thalidomide, read-out: CRBN binding Ki
Experimental: CRBN-DDB1 protein complex was mixed with Cy5-labelled thalidomide and a compound to be tested (the “test compound”). […] The test solution was added to a 384-well assay plate.
The plate was spun-down (1 min, 1000 rpm, 22° C.) and then shaken using a VibroTurbulator for 10 min at room temperature (20-25° C.), with the frequency set to level 3. The assay plate with protein and the tracer was incubated for 60 min at room temperature (20-25° C.) prior to read-out with a plate reader.
The FP experiment was carried out with various concentrations of the test compounds in order to measure Ki values.

SALL4 = SALL4 degradation assay, Kelly cell line (western blot densitometry); assay type: cell-based; settings: Kelly cells; for % of protein reduction based on densitometry values, SALL4 (24 H): summary Table 10, 20 μM (some compounds 10 and 20 μM); for % of SALL4 protein reduction, based on densitometry values: 24 h
Text: (§1) After primary and secondary Ab staining, the membranes were washed and signals developed. The densitometry analysis was implemented to obtain the numeric values used later in the protein level evaluation process.

CK1α = CK1α degradation assay, Kelly cell line (western blot densitometry); assay type: cell-based; settings: Kelly cells; for % of protein reduction based on densitometry values, CK1α (24 H): summary Table 10, 20 μM (some compounds 10 and 20 μM); for % of CK1α protein reduction, based on densitometry values: 24 h
Text: as §1

IKZF1 = IKZF1 degradation assay, H929 cell line (western blot densitometry); assay type: cell-based; settings: H929 cells; for % of protein reduction based on densitometry values, IKZF 1 (24 H): summary Table 10, 20 μM (some compounds 10 and 20 μM); for % of IKZF1 α protein reduction based on densitometry values: 24 h
Text: as §1

IKZF3 = IKZF3 degradation assay, H929 cell line (western blot densitometry); assay type: cell-based; settings: H929 cells; for % of IKZF3 protein reduction based on densitometry values, IKZF3 Band I / % of IKZF3 protein reduction based on densitometry values, IKZF3 Band II: 24 h; for % of protein reduction based on densitometry values, IKZF3 (24 H): summary Table 10, 10 and 20 μM

CRBN-DDB1 protein complex, sequence (Q96SW2 whole entry): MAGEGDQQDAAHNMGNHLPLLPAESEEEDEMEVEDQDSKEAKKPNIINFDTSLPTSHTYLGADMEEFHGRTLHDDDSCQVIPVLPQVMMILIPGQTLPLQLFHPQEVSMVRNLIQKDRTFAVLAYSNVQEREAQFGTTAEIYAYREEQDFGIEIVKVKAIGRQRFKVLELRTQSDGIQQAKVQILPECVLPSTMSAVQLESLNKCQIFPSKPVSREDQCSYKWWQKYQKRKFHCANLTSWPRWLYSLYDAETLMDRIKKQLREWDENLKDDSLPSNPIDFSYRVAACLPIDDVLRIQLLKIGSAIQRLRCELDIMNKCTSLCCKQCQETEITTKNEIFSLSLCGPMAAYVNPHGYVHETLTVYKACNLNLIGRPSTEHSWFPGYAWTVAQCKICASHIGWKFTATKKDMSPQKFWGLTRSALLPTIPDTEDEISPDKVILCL
CRBN-DDB1 protein complex, sequence (Q16531 whole entry partner): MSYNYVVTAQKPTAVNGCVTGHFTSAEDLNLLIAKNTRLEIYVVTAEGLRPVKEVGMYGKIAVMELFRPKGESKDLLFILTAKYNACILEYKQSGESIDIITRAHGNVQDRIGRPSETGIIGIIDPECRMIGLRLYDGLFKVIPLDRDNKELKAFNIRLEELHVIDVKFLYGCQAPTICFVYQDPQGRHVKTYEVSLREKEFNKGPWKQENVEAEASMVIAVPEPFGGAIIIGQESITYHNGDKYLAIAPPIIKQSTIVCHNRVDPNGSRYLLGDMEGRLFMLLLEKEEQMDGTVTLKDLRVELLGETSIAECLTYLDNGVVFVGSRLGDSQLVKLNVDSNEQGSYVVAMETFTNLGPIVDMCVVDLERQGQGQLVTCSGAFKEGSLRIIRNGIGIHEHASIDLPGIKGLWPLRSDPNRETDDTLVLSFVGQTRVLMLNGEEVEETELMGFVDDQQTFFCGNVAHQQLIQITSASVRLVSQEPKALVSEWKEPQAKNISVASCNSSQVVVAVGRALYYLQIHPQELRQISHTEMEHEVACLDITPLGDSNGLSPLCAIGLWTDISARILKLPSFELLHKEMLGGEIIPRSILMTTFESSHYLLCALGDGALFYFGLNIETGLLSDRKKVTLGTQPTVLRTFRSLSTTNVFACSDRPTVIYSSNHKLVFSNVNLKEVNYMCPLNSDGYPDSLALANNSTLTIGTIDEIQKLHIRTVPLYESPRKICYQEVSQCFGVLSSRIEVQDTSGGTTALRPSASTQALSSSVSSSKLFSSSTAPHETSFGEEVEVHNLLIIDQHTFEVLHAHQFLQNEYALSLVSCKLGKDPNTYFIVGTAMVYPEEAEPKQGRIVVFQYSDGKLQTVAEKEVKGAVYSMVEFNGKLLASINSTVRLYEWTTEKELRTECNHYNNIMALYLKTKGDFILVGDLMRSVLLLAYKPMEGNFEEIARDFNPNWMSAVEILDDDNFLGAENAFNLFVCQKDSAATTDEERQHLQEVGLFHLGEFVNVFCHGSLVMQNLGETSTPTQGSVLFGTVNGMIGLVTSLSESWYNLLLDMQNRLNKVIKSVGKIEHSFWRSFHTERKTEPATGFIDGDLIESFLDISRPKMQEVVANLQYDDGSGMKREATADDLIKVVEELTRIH

| SMILES | Ki [1] [µM] | % of protein reduction based on densitometry values, SALL4 (24 H) (SALL4) | % of protein reduction based on densitometry values, CK1α (24 H) (CK1α) | % of protein reduction based on densitometry values, IKZF 1 (24 H) (IKZF1) | % of SALL4 protein reduction, based on densitometry values (SALL4; 10 μM) | % of SALL4 protein reduction, based on densitometry values (SALL4; 20 μM) | % of CK1α protein reduction, based on densitometry values (CK1α; 10 μM) | % of CK1α protein reduction, based on densitometry values (CK1α; 20 μM) | % of IKZF1 α protein reduction based on densitometry values (IKZF1; 10 μM) | % of IKZF1 α protein reduction based on densitometry values (IKZF1; 20 μM) | % of IKZF3 protein reduction based on densitometry values, IKZF3 Band I (IKZF3; 10 μM) | % of IKZF3 protein reduction based on densitometry values, IKZF3 Band II (IKZF3; 10 μM) | % of IKZF3 protein reduction based on densitometry values, IKZF3 Band I (IKZF3; 20 μM) | % of IKZF3 protein reduction based on densitometry values, IKZF3 Band II (IKZF3; 20 μM) | % of protein reduction based on densitometry values, IKZF3 (24 H) (IKZF3) |
| --- | --- | --- | --- | --- | --- | --- | --- | --- | --- | --- | --- | --- | --- | --- | --- |
| O=C1CCC(NC(=O)c2c(F)ccc3[nH]cnc23)C(=O)N1 (centres unmarked) [Compound 7, N-(2,6-dioxopiperidin-3-yl)-5-fluoro-1H-benzo[d]imidazole-4-carboxamide] | 1 to 10 | ≤25% (≤25% for 0-25% of SALL4 protein reduction) | ≤25% (≤25% for 0-25% of CK1a protein reduction) | ≤25% (≤25% for 0-25% of IKZF1 protein reduction) |  |  |  |  |  |  |  |  |  |  |  |
| O=C1CCC(NC(=O)c2ccnc3cc[nH]c23)C(=O)N1 (centres unmarked) [Compound 37, N-(2,6-dioxopiperidin-3-yl)-1H-pyrrolo[3,2-b]pyridine-7-carboxamide] | 10 to 50 | ≤25% (≤25% for 0-25% of SALL4 protein reduction) | ≤25% (≤25% for 0-25% of CK1a protein reduction) | ≤25% (≤25% for 0-25% of IKZF1 protein reduction) |  |  |  |  |  |  |  |  |  |  |  |
| Cn1cnc2c(C(=O)NC3CCC(=O)NC3=O)cccc21 (centres unmarked) [Compound 4, N-(2,6-dioxopiperidin-3-yl)-1-methyl-1H-benzo[d]imidazole-4-carboxamide] | 1 to 10 | ≤25% (≤25% for 0-25% of SALL4 protein reduction) | ≤25% (≤25% for 0-25% of CK1a protein reduction) | ≤25% (≤25% for 0-25% of IKZF1 protein reduction) |  |  |  |  |  |  |  |  |  |  |  |
| Nc1cccc2c1C(=O)N(C1CCC(=O)NC1=O)C2=O (centres unmarked) [Pomalidomide, reference compound] |  | ≥75% (≥75% for 75-100% of SALL4 protein reduction) | >25% (>25% for 26-74% of CK1a protein reduction) | ≥75% (≥75% for 75-100% of IKZF1 protein reduction) | ≥75% (≥75% for 75-100% of SALL4 protein reduction) | ≥75% (≥75% for 75-100% of SALL4 protein reduction) | >25% (>25% for 26-74% of CK1a protein reduction) | >25% (>25% for 26-74% of CK1a protein reduction) | ≥75% (≥75% for 75-100% of IKZF1 protein reduction) | ≥75% (≥75% for 75-100% of IKZF1 protein reduction) | ≥75% (≥75% for 75-100% of IKZF3 protein reduction) | ≥75% (≥75% for 75-100% of IKZF3 protein reduction) | ≥75% (≥75% for 75-100% of IKZF3 protein reduction) | ≥75% (≥75% for 75-100% of IKZF3 protein reduction) | ≥75% (≥75% for 75-100% of IKZF3 protein reduction) |
| CC(C)Cc1nc2c(C(=O)NC3CCC(=O)NC3=O)cccc2[nH]1 (centres unmarked) [Compound 24, N-(2,6-dioxopiperidin-3-yl)-2-isobutyl-1H-benzo[d]imidazole-7-carboxamide] | 1 to 10 | ≤25% (≤25% for 0-25% of SALL4 protein reduction) | ≤25% (≤25% for 0-25% of CK1a protein reduction) | ≤25% (≤25% for 0-25% of IKZF1 protein reduction) |  |  |  |  |  |  |  |  |  |  |  |
| O=C1CCC(NC(=O)c2cccc3cnsc23)C(=O)N1 (centres unmarked) [Compound 50, N-(2,6-dioxopiperidin-3-yl)benzo[d]isothiazole-7-carboxamide] | 1 to 10 | ≤25% (≤25% for 0-25% of SALL4 protein reduction) | ≤25% (≤25% for 0-25% of CK1a protein reduction) | ≤25% (≤25% for 0-25% of IKZF1 protein reduction) | ≤25% (≤25% for 0-25% of SALL4 protein reduction) | ≤25% (≤25% for 0-25% of SALL4 protein reduction) | ≤25% (≤25% for 0-25% of CK1a protein reduction) | ≤25% (≤25% for 0-25% of CK1a protein reduction) | ≤25% (≤25% for 0-25% of IKZF1 protein reduction) | ≤25% (≤25% for 0-25% of IKZF1 protein reduction) | ≤25% (≤25% for 0-25% of IKZF3 protein reduction) | ≤25% (≤25% for 0-25% of IKZF3 protein reduction) | ≤25% (≤25% for 0-25% of IKZF3 protein reduction) | ≤25% (≤25% for 0-25% of IKZF3 protein reduction) | ≤25% (≤25% for 0-25% of IKZF3 protein reduction) |
| O=C1CCC(NC(=O)c2cccc3c2NC(=O)C3)C(=O)N1 (centres unmarked) [Compound 1, N-(2,6-dioxopiperidin-3-yl)-2-oxoindoline-7-carboxamide] | 10 to 50 | ≤25% (≤25% for 0-25% of SALL4 protein reduction) | ≤25% (≤25% for 0-25% of CK1a protein reduction) | ≤25% (≤25% for 0-25% of IKZF1 protein reduction) |  |  |  |  |  |  |  |  |  |  |  |
| Cc1nc2c(C(=O)NC3CCC(=O)NC3=O)cccc2[nH]1 (centres unmarked) [Compound 15, N-(2,6-dioxopiperidin-3-yl)-2-methyl-1H-benzo[d]imidazole-4-carboxamide] | < 1 | ≤25% (≤25% for 0-25% of SALL4 protein reduction) | ≤25% (≤25% for 0-25% of CK1a protein reduction) | ≤25% (≤25% for 0-25% of IKZF1 protein reduction) |  |  |  |  |  |  | ≤25% (≤25% for 0-25% of IKZF3 protein reduction) | ≤25% (≤25% for 0-25% of IKZF3 protein reduction) | ≤25% (≤25% for 0-25% of IKZF3 protein reduction) | ≤25% (≤25% for 0-25% of IKZF3 protein reduction) | ≤25% (≤25% for 0-25% of IKZF3 protein reduction) |
| Cc1nc2c(C(=O)NC3CCC(=O)NC3=O)ccnc2[nH]1 (centres unmarked) [Compound 36, N-(2,6-dioxopiperidin-3-yl)-2-methyl-3H-imidazo[4,5-b]pyridine-7-carboxamide] | 1 to 10 | ≤25% (≤25% for 0-25% of SALL4 protein reduction) | ≤25% (≤25% for 0-25% of CK1a protein reduction) | ≤25% (≤25% for 0-25% of IKZF1 protein reduction) |  |  |  |  |  |  |  |  |  |  |  |
| COc1cc(C(=O)NC2CCC(=O)NC2=O)c2nc(C)[nH]c2c1 (centres unmarked) [Compound 30, N-(2,6-dioxopiperidin-3-yl)-6-methoxy-2-methyl-1H-benzo[d]imidazole-4-carboxamide] | < 1 | ≤25% (≤25% for 0-25% of SALL4 protein reduction) | ≤25% (≤25% for 0-25% of CK1a protein reduction) | ≤25% (≤25% for 0-25% of IKZF1 protein reduction) |  |  |  |  |  |  | ≤25% (≤25% for 0-25% of IKZF3 protein reduction) | ≤25% (≤25% for 0-25% of IKZF3 protein reduction) | ≤25% (≤25% for 0-25% of IKZF3 protein reduction) | ≤25% (≤25% for 0-25% of IKZF3 protein reduction) | ≤25% (≤25% for 0-25% of IKZF3 protein reduction) |
| O=C1CCC(NC(=O)c2cccc3[nH]c(C(F)(F)F)nc23)C(=O)N1 (centres unmarked) [Compound 25, N-(2,6-dioxopiperidin-3-yl)-2-(trifluoromethyl)-1H-benzo[d]imidazole-7-carboxamide] | < 1 | ≤25% (≤25% for 0-25% of SALL4 protein reduction) | ≤25% (≤25% for 0-25% of CK1a protein reduction) | ≤25% (≤25% for 0-25% of IKZF1 protein reduction) |  |  |  |  |  |  |  |  |  |  |  |
| O=C1CCC(NC(=O)c2cc(F)cc3[nH]cnc23)C(=O)N1 (centres unmarked) [Compound 8, N-(2,6-dioxopiperidin-3-yl)-6-fluoro-1H-benzo[d]imidazole-4-carboxamide] | 1 to 10 | ≤25% (≤25% for 0-25% of SALL4 protein reduction) | ≤25% (≤25% for 0-25% of CK1a protein reduction) | ≤25% (≤25% for 0-25% of IKZF1 protein reduction) |  |  |  |  |  |  |  |  |  |  |  |
| O=C1CCC(NC(=O)c2cccc3[nH]c(C(F)F)nc23)C(=O)N1 (centres unmarked) [Compound 23, 2-(difluoromethyl)-N-(2,6-dioxopiperidin-3-yl)-1H-benzo[d]imidazole-7-carboxamide] | 1 to 10 | ≤25% (≤25% for 0-25% of SALL4 protein reduction) | ≤25% (≤25% for 0-25% of CK1a protein reduction) | ≤25% (≤25% for 0-25% of IKZF1 protein reduction) |  |  |  |  |  |  |  |  |  |  |  |
